# Test results taken from patent US9475805B2, “Tricyclic compound” (Kyowa Hakko Kirin Co., Ltd., priority 2008, dated 2016).
# Molecular target: T1, PPAR γ (Homo sapiens, UniProt P37231)
# T1 construct: expressed in transfected cells; host or cells: HEK293EBNA
# T1 sequence (P37231 174-475 isoform P37231-2): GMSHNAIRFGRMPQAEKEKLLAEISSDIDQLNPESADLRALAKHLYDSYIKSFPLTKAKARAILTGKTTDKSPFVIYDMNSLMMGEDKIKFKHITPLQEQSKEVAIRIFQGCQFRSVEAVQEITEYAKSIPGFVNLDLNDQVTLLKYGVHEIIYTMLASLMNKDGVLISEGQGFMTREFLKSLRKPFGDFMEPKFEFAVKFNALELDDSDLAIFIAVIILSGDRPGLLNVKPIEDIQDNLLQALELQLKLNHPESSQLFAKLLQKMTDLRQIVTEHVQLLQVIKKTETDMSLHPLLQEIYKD
# Assay: PPAR γ activation action based on transactivation assay of PPAR γ by transient gene transfer (GAL4-PPAR γ chimeric receptor, luciferase reporter, HEK293EBNA cells)
# Assay type: cell-based
# Conditions: concentration showing 50% of the compound's own efficacy (maximum activity rate relative to pioglitazone 10 μmol/L = 100%), 24 hr
# Procedure: The agonist activity of compound (I) to PPAR γ was determined by a transactivation assay method using a chimeric nuclear receptor of a DNA binding region of a yeast transcription factor GAL4 and a PPAR γ ligand binding region. Specifically, the PPAR γ agonist activity of compound (I) was evaluated by the following method based on the method of Lehmann et al. (J Biol Chem., 1995, vol. 270, page 12953).
# HEK293EBNA cells cultured in Dulbecco's Modified Eagle medium (Invitrogen) containing 10 v/v % fetal calf serum (Invitrogen) were used. 30 mL of the above-mentioned cells (density: 1×10^5 cells/mL) were inoculated in a […] (Iwaki Glass), and cultured overnight. Using SuperFect Transfection Reagent (QIAGEN), a plasmid expressing a GAL4-PPAR γ chimeric nuclear receptor fusing 174-475 amino acids, which are human PPAR γ ligand binding region, and 1-147 amino acids, which are GAL4 DNA binding region, and a reporter plasmid expressing a GAL4 responsive luciferase were transiently introduced into the cells at a proportion of 4:1. After 5 hr from transfection, the cells were detached from the culture dish, and the detached cells (density: 2×10^4 cells/mL) were inoculated by 100 μL in each well of a 96 well white plate (SUMITOMO BAKELITE), and cultured overnight. The medium was removed, compound (I) diluted in various concentrations with serum-free Dulbecco's Modified Eagle medium was added by 100 μL, and the mixture was reacted under a 5% carbon dioxide gas stream (5% CO2) at 37° C. for 24 hr. On the other hand, as a positive control, 10 μmol/L of pioglitazone (100 μL) was added, and the mixture was reacted under a 5% carbon dioxide gas stream (5% CO2) at 37° C. for 24 hr. As a substrate of luciferase, 100 μL of Steady-Glo (Promega) was added to each well and the mixture was thoroughly stirred. Immediately thereafter, the chemical luminescence due to luciferase was measured using TopCount NTX (Packard).
# The agonist activity (activity rate (%)) of compound (I) to PPAR γ was calculated according to the following formula, as a relative activity when the agonist activity on addition of pioglitazone (10 μmol/L) was 100%.
row,SMILES,EC50 [µM]
1,"CCc1nc2c(C)cc(C)nc2n1Cc1ccc2c(c1)CCc1ccccc1/C2=C\c1noc(=S)[nH]1 [Compound 8, (E)-2-(2-Ethyl-5,7-dimethyl-3H-imidazo[4,5-b]pyridin-3-yl)methyl-5-(5-thioxo-4,5-dihydro-1,2,4-oxadiazol-3-yl)methylene-10,11-dihydro-5H-dibenzo[a,d]cycloheptene]",0.175
2,"C/C(=C1\c2ccccc2CCc2cc(Cn3c(C4CC4)nc4c(Cl)cccc43)ccc21)c1noc(=O)[nH]1 [Compound 19, (Z)-2-(4-Chloro-2-cyclopropylbenzimidazol-1-yl)methyl-5-[1-(5-oxo-4,5-dihydro-1,2,4-oxadiazol-3-yl)ethylidene]-10,11-dihydro-5H-dibenzo[a,d]cycloheptene]",0.0064
3,"CCc1nc(-c2ccccc2)cn1Cc1ccc2c(c1)COc1ccccc1/C2=C(\C)c1noc(=O)[nH]1 [Compound 21, (E)-8-(2-Ethyl-4-phenylimidazol-1-yl)methyl-11-[1-(5-oxo-4,5-dihydro-1,2,4-oxadiazol-3-yl)ethylidene]-6,11-dihydrodibenzo[b,e]oxepine]",0.04
4,"C/C(=C1/c2ccc(Cn3c(Cc4ccccc4)nc4ccccc43)cc2COc2ccccc21)c1noc(=O)[nH]1 [Compound 33, (E)-8-(2-Benzylbenzimidazol-1-yl)methyl-11-[1-(5-oxo-4,5-dihydro-1,2,4-oxadiazol-3-yl)ethylidene]-6,11-dihydrodibenzo[b,e]oxepine]",0.026

# Results, then the molecule that gave them:
row,EC50 [µM],SMILES
1,0.399,"CCCc1nc2ccccc2n1Cc1ccc2c(c1)CCc1ccccc1/C2=C\c1noc(=O)[nH]1 [Compound 5, (E)-2-(2-Propylbenzimidazol-1-yl)methyl-5-(5-oxo-4,5-dihydro-1,2,4-oxadiazol-3-yl)methylene-10,11-dihydro-5H-dibenzo[a,d]cycloheptene]"
2,0.791,"CCCc1nc2ccccc2n1Cc1ccc2c(c1)CCc1ccccc1/C2=C\c1n[nH]c(=O)o1 [Compound 7, (E)-2-(2-Propylbenzimidazol-1-yl)methyl-5-(5-oxo-4,5-dihydro-1,3,4-oxadiazol-2-yl)methylene-10,11-dihydro-5H-dibenzo[a,d]cycloheptene]"
3,0.03,"CCCc1nc2c(C)cccc2n1Cc1ccc2c(c1)CCc1ccccc1/C2=C(\C)c1nnn[nH]1 [Compound 17, (Z)-2-(4-Methyl-2-propylbenzimidazol-1-yl)methyl-5-[1-(1H-tetrazol-5-yl)ethylidene]-10,11-dihydro-5H-dibenzo[a,d]cycloheptene]"
4,0.017,"CCc1nc2ccccc2n1Cc1ccc2c(c1)COc1ccccc1/C2=C(\C)c1noc(=O)[nH]1 [Compound 26, (E)-8-(2-Ethylbenzimidazol-1-yl)methyl-11-[1-(5-oxo-4,5-dihydro-1,2,4-oxadiazol-3-yl)ethylidene]-6,11-dihydrodibenzo[b,e]oxepine]"
5,0.0026,"CCCc1nc2ccccc2n1Cc1ccc2c(c1)COc1ccccc1/C2=C(\C)c1noc(=O)[nH]1 [Compound 27, (E)-8-(2-Propylbenzimidazol-1-yl)methyl-11-[1-(5-oxo-4,5-dihydro-1,2,4-oxadiazol-3-yl)ethylidene]-6,11-dihydrodibenzo[b,e]oxepine]"
6,0.0098,"COCc1nc2ccccc2n1Cc1ccc2c(c1)COc1ccccc1/C2=C(\C)c1noc(=O)[nH]1 [Compound 30, (E)-8-(2-Methoxymethylbenzimidazol-1-yl)methyl-11-[1-(5-oxo-4,5-dihydro-1,2,4-oxadiazol-3-yl)ethylidene]-6,11-dihydrodibenzo[b,e]oxepine]"
7,0.0024,"CCCc1nc2c(C)cccc2n1Cc1ccc2c(c1)COc1ccccc1/C2=C(\C)c1noc(=O)[nH]1 [Compound 35, (E)-8-(2-Propyl-4-methylbenzimidazol-1-yl)methyl-11-[1-(5-oxo-4,5-dihydro-1,2,4-oxadiazol-3-yl)ethylidene]-6,11-dihydrodibenzo[b,e]oxepine]"
